Measurements from article PMC6976638, “Screening of natural compounds that targets glutamate racemase of Mycobacterium tuberculosis reveals the anti-tubercular potential of flavonoids” (Scientific Reports, 2020).

What was measured:
[1] = target: Glutamate racemase (MTB-MurI) (Mycobacterium tuberculosis, UniProt P9WPW9); assay: GDH-coupled racemization assay (A340), Lineweaver-Burk and Dixon plots; […]; assay type: biochemical
N[C@H](CCC(=O)O)C(=O)O = assay: purified protein; settings: substrate binding site; Cys75 and Cys185 catalytic residues

Sequence of Glutamate racemase (MTB-MurI) (P9WPW9 whole entry, looked up): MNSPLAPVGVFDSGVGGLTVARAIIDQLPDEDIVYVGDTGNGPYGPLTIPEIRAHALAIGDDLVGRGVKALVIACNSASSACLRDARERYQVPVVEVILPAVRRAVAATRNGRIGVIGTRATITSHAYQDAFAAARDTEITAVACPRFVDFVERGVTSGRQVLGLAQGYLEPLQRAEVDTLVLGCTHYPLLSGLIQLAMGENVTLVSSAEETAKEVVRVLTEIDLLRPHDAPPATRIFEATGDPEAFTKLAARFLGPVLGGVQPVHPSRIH

Compound	Ki [1]	Km (N[C@H](CCC(=O)O)C(=O)O)
O=C1C[C@@H](c2ccc(O)cc2)Oc2cc(O)cc(O)c21 [naringenin]	23.8 µM	–
O=c1c(O)c(-c2ccc(O)c(O)c2)oc2cc(O)cc(O)c12 [quercetin]	20.8 µM	–
Glutamate racemase (MTB-MurI) (Mycobacterium tuberculosis H37Rv)	–	499 µM
